Assay results from ChEMBL document CHEMBL1201862, “PubChem BioAssay data set” (2004).
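Step 1: Grow cells in 96-well plates. Step 2: Expose to compound for 48 hours at 5 concentrations. Step 3: Interpolate endpoints linearly; if unreached, use highest concentration. GI50 = concentration required for 50% inhibition of growth.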 Activity calls are given as the source filed them. Cut-off read from the data, not from the text of the source: active = GI50 up to about 1.1 µM and inactive = higher.

How the values were obtained:
Experiment in all cases: DTP human tumour cell line panel, 48 h
[1] = system: A498
[2] = system: ACHN
[3] = system: CCRF-CEM
[4] = system: DU-145
[5] = system: HCT-15
[6] = system: HL-60
[7] = system: Hs-578T
[8] = system: KM12
[9] = system: MCF7
[10] = system: MDA-MB-231
[11] = system: MDA-MB-435
[12] = system: NCI-H226
[13] = system: NCI-H23
[14] = system: NCI-H522
[15] = system: PC-3
[16] = system: SF-268
[17] = system: SF-295
[18] = system: UACC-257
[19] = system: UO-31
[20] = system: MDA-N

CCCCC1=CC1(C#N)[N+](=O)[O-] (configuration not stated)
GI50 [1]: 76.2 µM (inactive) | GI50 [2]: > 100 µM (inactive) | GI50 [3]: 18.1 µM (inactive) | GI50 [4]: > 100 µM (inactive) | GI50 [5]: > 100 µM | GI50 [6]: > 10 µM (inactive) | GI50 [7]: > 100 µM (inactive) | GI50 [8]: > 100 µM (inactive) | GI50 [9]: 45.4 µM (inactive) | GI50 [10]: > 100 µM (inactive) | GI50 [11]: > 100 µM (inactive) | GI50 [12]: > 100 µM (inactive) | GI50 [13]: > 100 µM (inactive) | GI50 [14]: 45.6 µM (inactive) | GI50 [15]: > 100 µM (inactive) | GI50 [16]: > 100 µM (inactive) | GI50 [17]: > 100 µM (inactive) | GI50 [18]: > 100 µM (inactive) | GI50 [19]: > 100 µM (inactive)

Cc1cc2cc3c(Cl)c(CCCl)c(C)nc3cc2c(Cl)c1CCCl
GI50 [1]: 19.2 µM (inactive) | GI50 [2]: 20.9 µM (inactive) | GI50 [3]: 23.4 µM (inactive) | GI50 [4]: 21.6 µM (inactive) | GI50 [5]: 24.9 µM | GI50 [6]: 11.5 µM (inactive) | GI50 [7]: 9.84 µM (inactive) | GI50 [8]: 17.9 µM (inactive) | GI50 [9]: 26.9 µM (inactive) | GI50 [11]: 15.6 µM (inactive) | GI50 [12]: 3.73 µM (inactive) | GI50 [13]: 21.8 µM (inactive) | GI50 [14]: 19.2 µM (inactive) | GI50 [15]: 14.4 µM (inactive) | GI50 [16]: 11.2 µM (inactive) | GI50 [17]: 17.2 µM (inactive) | GI50 [18]: 18 µM (inactive) | GI50 [19]: 16.1 µM (inactive)

CCN1C[C@]2(COC)[C@H](O)C[C@H](OC)[C@]34C1[C@H]([C@H](OC)[C@H]23)[C@]1(OC(C)=O)[C@H]2[C@@H](OC(=O)c3ccccc3)[C@](O)(C[C@H]24)[C@@H](OC)[C@@H]1O
GI50 [1]: > 100 µM (inactive) | GI50 [2]: > 100 µM (inactive) | GI50 [3]: > 100 µM (inactive) | GI50 [4]: > 100 µM (inactive) | GI50 [5]: > 100 µM | GI50 [6]: > 100 µM (inactive) | GI50 [7]: > 100 µM (inactive) | GI50 [8]: > 100 µM (inactive) | GI50 [9]: > 100 µM (inactive) | GI50 [10]: > 100 µM (inactive) | GI50 [11]: > 100 µM (inactive) | GI50 [12]: > 100 µM (inactive) | GI50 [13]: > 100 µM (inactive) | GI50 [14]: > 100 µM (inactive) | GI50 [15]: > 100 µM (inactive) | GI50 [16]: > 100 µM (inactive) | GI50 [17]: > 100 µM (inactive) | GI50 [18]: > 100 µM (inactive) | GI50 [19]: > 100 µM (inactive)

CC(=O)Oc1cc2c(n(C)c1=O)CCC2
GI50 [1]: > 100 µM (inactive) | GI50 [2]: > 100 µM (inactive) | GI50 [3]: > 100 µM (inactive) | GI50 [4]: > 100 µM (inactive) | GI50 [5]: 33.6 µM | GI50 [6]: 81.5 µM (inactive) | GI50 [8]: > 100 µM (inactive) | GI50 [9]: > 100 µM (inactive) | GI50 [10]: > 100 µM (inactive) | GI50 [11]: > 100 µM (inactive) | GI50 [12]: > 100 µM (inactive) | GI50 [13]: > 100 µM (inactive) | GI50 [14]: > 10 µM (inactive) | GI50 [15]: > 100 µM (inactive) | GI50 [16]: > 100 µM (inactive) | GI50 [17]: > 100 µM (inactive) | GI50 [18]: > 100 µM (inactive) | GI50 [19]: 99.5 µM (inactive)

Brc1ccc2c(c1)-c1nc3nc4c(cc3cc1CC2)CCc1ccc(Br)cc1-4
GI50 [1]: > 100 µM (inactive) | GI50 [2]: > 100 µM (inactive) | GI50 [5]: > 100 µM | GI50 [8]: 62.7 µM (inactive) | GI50 [9]: > 100 µM (inactive) | GI50 [10]: > 100 µM (inactive) | GI50 [11]: 5.65 µM (inactive) | GI50 [20]: > 100 µM (inactive) | GI50 [12]: > 100 µM (inactive) | GI50 [13]: > 100 µM (inactive) | GI50 [14]: > 100 µM (inactive) | GI50 [15]: > 100 µM (inactive) | GI50 [16]: > 100 µM (inactive) | GI50 [17]: > 100 µM (inactive) | GI50 [18]: > 100 µM (inactive) | GI50 [19]: > 100 µM (inactive)

COc1cc(O)c2c(=O)cc(C3(OC(C)=O)C=CC(OC4OC(CO)C(O)C(O)C4O)C=C3)oc2c1 (configuration not stated)
GI50 [1]: > 100 µM (inactive) | GI50 [2]: > 100 µM (inactive) | GI50 [3]: > 100 µM (inactive) | GI50 [4]: > 100 µM (inactive) | GI50 [5]: > 100 µM | GI50 [6]: > 100 µM (inactive) | GI50 [8]: > 100 µM (inactive) | GI50 [9]: > 100 µM (inactive) | GI50 [10]: > 100 µM (inactive) | GI50 [11]: > 100 µM (inactive) | GI50 [20]: > 100 µM (inactive) | GI50 [12]: > 100 µM (inactive) | GI50 [13]: > 100 µM (inactive) | GI50 [14]: > 100 µM (inactive) | GI50 [15]: > 100 µM (inactive) | GI50 [17]: > 100 µM (inactive) | GI50 [18]: > 100 µM (inactive) | GI50 [19]: > 100 µM (inactive)

O=C(CSc1nccc(=O)[nH]1)c1ccccc1
GI50 [2]: > 100 µM (inactive) | GI50 [4]: > 100 µM (inactive) | GI50 [5]: > 100 µM | GI50 [6]: > 100 µM (inactive) | GI50 [7]: 16.1 µM (inactive) | GI50 [8]: > 100 µM (inactive) | GI50 [9]: 91 µM (inactive) | GI50 [10]: 61.5 µM (inactive) | GI50 [11]: 62.2 µM (inactive) | GI50 [13]: > 100 µM (inactive) | GI50 [14]: > 100 µM (inactive) | GI50 [15]: > 100 µM (inactive) | GI50 [16]: > 100 µM (inactive) | GI50 [17]: 60.4 µM (inactive) | GI50 [18]: > 100 µM (inactive) | GI50 [19]: > 100 µM (inactive)

Cc1ccc2nc(NC(=O)/C(=N\NC(=S)NN)C3C(=O)NC(=S)NC3=O)sc2c1
GI50 [1]: > 100 µM (inactive) | GI50 [2]: > 100 µM (inactive) | GI50 [3]: > 100 µM (inactive) | GI50 [5]: > 100 µM | GI50 [6]: > 100 µM (inactive) | GI50 [8]: > 100 µM (inactive) | GI50 [12]: > 100 µM (inactive) | GI50 [13]: > 100 µM (inactive) | GI50 [14]: > 100 µM (inactive) | GI50 [16]: > 100 µM (inactive) | GI50 [17]: > 100 µM (inactive) | GI50 [18]: > 100 µM (inactive) | GI50 [19]: > 100 µM (inactive)
